Results published in ChEMBL document CHEMBL4340506, “Inhibition of a viral prolyl hydroxylase” (Bioorg Med Chem, 2019).
Calls of active or inactive are those of the source. The rule behind the calls is not given here. Where a SMILES comes first, the peptide text is derived from it. [ ]: non-standard residue; d: D form. Pro(cis-4-F) = O=C(O)[C@@H]1C[C@H](F)CN1; Hyp = O=C(O)[C@@H]1C[C@@H](O)CN1

What follows are compounds tested against Hypoxia-inducible factor 1-alpha inhibitor (Homo sapiens, UniProt Q9NWT6) (assay: Inhibition of recombinant human FIH using 2OG as substrate and Fe2 as co-factor assessed as hydroxylation incubated for 15 mins in presence of L-ascorbate by LC-MS analysis).
Sequence of Hypoxia-inducible factor 1-alpha inhibitor (Q9NWT6 whole entry): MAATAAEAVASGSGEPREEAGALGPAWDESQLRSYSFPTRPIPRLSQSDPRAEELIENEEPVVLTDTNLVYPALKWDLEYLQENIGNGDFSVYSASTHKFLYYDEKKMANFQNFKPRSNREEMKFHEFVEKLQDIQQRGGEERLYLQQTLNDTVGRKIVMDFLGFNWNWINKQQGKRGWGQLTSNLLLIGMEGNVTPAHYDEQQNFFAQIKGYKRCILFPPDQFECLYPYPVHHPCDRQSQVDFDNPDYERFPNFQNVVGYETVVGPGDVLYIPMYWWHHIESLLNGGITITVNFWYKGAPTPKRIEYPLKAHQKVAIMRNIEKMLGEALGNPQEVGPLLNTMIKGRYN

Row | SMILES | IC50
1 | Cc1nc(C(=O)NCC(=O)O)c(O)c2ccc(Oc3ccccc3)cc12 [ROXADUSTAT] | > 100 µM

What follows are compounds tested against T1, Prolyl 4-hydroxylase (Paramecium bursaria Chlorella virus 1) (UniProt Q84406) (assay: (§1) Substrate activity at N-terminal His6-tagged recombinant Paramecium bursaria chlorella virus 1 CPH expressed in Escherichia coli Rosetta 2 (DE3) cells assessed as succinate production at 500 uM incubated for 60 s in presence of 2OG and L-ascorbate and using Fe2 as cofactor by 1H NMR spectroscopy).
T1 sequence (whole entry): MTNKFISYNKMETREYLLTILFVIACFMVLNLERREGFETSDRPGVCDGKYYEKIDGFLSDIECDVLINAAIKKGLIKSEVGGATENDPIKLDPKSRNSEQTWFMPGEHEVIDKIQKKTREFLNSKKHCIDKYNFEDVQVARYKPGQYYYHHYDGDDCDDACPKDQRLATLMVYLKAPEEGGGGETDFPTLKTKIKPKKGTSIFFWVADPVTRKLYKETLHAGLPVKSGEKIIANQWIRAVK

Row | SMILES | Activity
2 | C[C@H](NC(=O)[C@@H]1CCCN1)C(=O)N1CCC[C@H]1C(=O)N[C@@H](CCCCN)C(=O)N1C[C@H](O)C[C@H]1C(=O)N[C@@H](C)C(=O)N1CCC[C@H]1C(=O)N[C@@H](CCCCN)C(=O)O (H-PAPK[Hyp]APK-OH) | Active

The compounds below were run against T1, Prolyl 4-hydroxylase (Paramecium bursaria Chlorella virus 1) (assay: as §1, with “2OG and in absence of L-ascorbate and” for “2OG and L-ascorbate and”).

Row | SMILES | Activity
3 | C[C@H](NC(=O)[C@@H]1CCCN1)C(=O)N1CCC[C@H]1C(=O)N[C@@H](CCCCN)C(=O)N1C[C@H](O)C[C@H]1C(=O)N[C@@H](C)C(=O)N1CCC[C@H]1C(=O)N[C@@H](CCCCN)C(=O)O (H-PAPK[Hyp]APK-OH) | Active

What follows are compounds tested against T2, Prolyl 4-hydroxylase (Paramecium bursaria Chlorella virus 1, UniProt Q84406) (assay: Inhibition of N-terminal His6-tagged recombinant Paramecium bursaria chlorella virus 1 CPH expressed in Escherichia coli Rosetta 2 (DE3) cells pre-incubated for 5 mins before 2OG as substrate and Fe2 as co-factor addition in presence of L-ascorbate and measured after 5 mins MALDI TOF MS analysis).
T2 sequence (Q84406 whole entry): T1 sequence (whole entry)

Row | SMILES | IC50 | Ki
4 | O=C(O)CC[C@@H](O)C(=O)O | > 500 µM | 
5 | O=C(O)c1ccc(O)c2ncccc12 | 47.2 µM | 
6 | O=C(O)CCC(=O)O [SUCCINIC ACID] | > 1000 µM | 
7 | O=C(O)CCNc1cc(N2CCc3ccccc3CC2)nc(-c2ccccn2)n1 | 15.9 µM | 
8 | O=C(O)CNC(=O)c1c(O)n(C2CCCCC2)c(=O)n(C2CCCCC2)c1=O | 13.4 µM | 7.65 µM
9 | CC(C)(C)OC(=O)c1ccc(-n2[nH]cc(-n3ccnn3)c2=O)nc1 | 2.5 µM | 
10 | CC(=O)C(=O)O [PYRUVATE] | > 1000 µM | 
11 | N[C@@H](CCC(=O)O)C(=O)O [GLUTAMIC ACID] | > 1000 µM | 
12 | Cc1nc(C(=O)NCC(=O)O)c(O)c2ccc(Oc3ccccc3)cc12 [ROXADUSTAT] | 5 µM | 1.07 µM
13 | O=C(O)c1c[nH]c2c(ccc3cccnc32)c1=O | 15.7 µM | 
14 | O=C(O)C[C@H](O)C(=O)O | > 1000 µM | 
15 | CN(C)NC(=O)CCC(=O)O | > 100 µM | 
16 | CCCCCCCCOC(=O)c1ccc(O)c2ncccc12 | > 100 µM | 
17 | O=C(O)CC(=O)C(=O)O [OXALOACETATE] | > 1000 µM | 
18 | O=C(O)CNC(=O)C(=O)O [N-OXALYLGLYCINE] | 21.2 µM | 48.7 µM
19 | O=C(O)/C=C(/CC(=O)O)C(=O)O | > 1000 µM | 
20 | O=C(O)CC(O)(CC(=O)O)C(=O)O [CITRIC ACID] | 213 µM | 
21 | O=C(O)/C=C/C(=O)O [FUMARIC ACID] | > 1000 µM | 
22 | O=C(O)CNC(=O)c1ncc(-c2cccc(Cl)c2)cc1O | < 1 µM | 0.28 µM
23 | O=C(O)C[C@H](C(=O)O)[C@@H](O)C(=O)O [ISOCITRIC ACID] | 284 µM | 
24 | O=C(O)CNC(=O)c1nc(Cl)c2ccccc2c1O | 4.5 µM | 0.71 µM
25 | O=C(O)c1ccnc(C(=O)O)c1 | 5.3 µM | 3.28 µM
26 | Cc1ccsc1C(NC(=O)c1ccccc1)c1cc(Cl)c2cccnc2c1O (stereo unspecified) | > 100 µM | 
27 | O=C(O)CC[C@H](O)C(=O)O | > 500 µM | 

These compounds were tested against T3, Prolyl 3-hydroxylase OGFOD1 (Homo sapiens, UniProt Q8N543) (assay: Inhibition of recombinant human OGFOD1 using 2OG as substrate and Fe2 as co-factor assessed as hydroxylation incubated for 15 mins in presence of L-ascorbate by MALDI-TOF MS analysis).
T3 sequence (Q8N543 whole entry): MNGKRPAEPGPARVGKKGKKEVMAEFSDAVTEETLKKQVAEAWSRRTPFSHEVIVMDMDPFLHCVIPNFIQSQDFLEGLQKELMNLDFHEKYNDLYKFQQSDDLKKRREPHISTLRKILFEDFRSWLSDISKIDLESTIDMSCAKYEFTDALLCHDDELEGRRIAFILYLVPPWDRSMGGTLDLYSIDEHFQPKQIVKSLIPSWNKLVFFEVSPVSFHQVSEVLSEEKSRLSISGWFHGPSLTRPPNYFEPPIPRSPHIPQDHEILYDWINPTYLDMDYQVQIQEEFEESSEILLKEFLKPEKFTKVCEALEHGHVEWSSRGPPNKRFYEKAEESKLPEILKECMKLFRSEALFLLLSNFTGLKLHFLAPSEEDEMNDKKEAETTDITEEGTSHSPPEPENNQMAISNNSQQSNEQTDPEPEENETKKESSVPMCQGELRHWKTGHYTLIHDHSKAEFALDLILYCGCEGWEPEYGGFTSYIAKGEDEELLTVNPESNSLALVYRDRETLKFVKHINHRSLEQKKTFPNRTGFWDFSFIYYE

Row | SMILES | IC50
28 | O=C(O)CNC(=O)c1c(O)n(C2CCCCC2)c(=O)n(C2CCCCC2)c1=O | 2.1 µM
29 | CC(C)(C)OC(=O)c1ccc(-n2[nH]cc(-n3ccnn3)c2=O)nc1 | 5.1 µM
30 | Cc1nc(C(=O)NCC(=O)O)c(O)c2ccc(Oc3ccccc3)cc12 [ROXADUSTAT] | < 1 µM

Each compound was assayed against T1, Prolyl 4-hydroxylase (Paramecium bursaria Chlorella virus 1) (assay: Substrate activity at N-terminal His6-tagged recombinant Paramecium bursaria chlorella virus 1 CPH expressed in Escherichia coli Rosetta 2 (DE3) cells assessed as substrate hydroxylation at 100 uM incubated for 16 hrs in presence of 2OG by MALDI TOF MS analysis).

Row | SMILES | Activity
31 | C[C@H](NC(=O)[C@H](CCCCN)NC(=O)[C@@H]1C[C@@H](O)CN1C(=O)[C@H](C)NC(=O)[C@@H]1CCCN1)C(=O)N[C@@H](C)C(=O)N1CCC[C@H]1C(=O)N[C@@H](CCCCN)C(=O)O (H-PA[Hyp]KAAPK-OH) | inactive
32 | C[C@H](NC(=O)[C@H](CCC(N)=O)NC(=O)[C@H](CCCCN)NC(=O)[C@@H]1C[C@@H](O)CN1C(=O)[C@H](C)NC(=O)[C@@H]1CCCN1)C(=O)N1CCC[C@H]1C(=O)N[C@@H](CCCCN)C(=O)O (H-PA[Hyp]KQAPK-OH) | inactive
33 | C[C@H](NC(=O)[C@H](Cc1ccccc1)NC(=O)[C@H](CCCCN)NC(=O)[C@@H]1C[C@@H](O)CN1C(=O)[C@H](C)NC(=O)[C@@H]1CCCN1)C(=O)N1CCC[C@H]1C(=O)N[C@@H](CCCCN)C(=O)O (H-PA[Hyp]KFAPK-OH) | inactive
34 | C[C@H](NC(=O)[C@H](CO)NC(=O)[C@H](CCCCN)NC(=O)[C@@H]1C[C@@H](O)CN1C(=O)[C@H](C)NC(=O)[C@@H]1CCCN1)C(=O)N1CCC[C@H]1C(=O)N[C@@H](CCCCN)C(=O)O (H-PA[Hyp]KSAPK-OH) | inactive
35 | C[C@H](NC(=O)[C@@H]1CCCN1)C(=O)N1C[C@H](O)C[C@H]1C(=O)N[C@@H](CCCCN)C(=O)N1C[C@@H](F)C[C@H]1C(=O)N[C@@H](C)C(=O)N1CCC[C@H]1C(=O)N[C@@H](CCCCN)C(=O)O (H-PA[Hyp]K[Pro(cis-4-F)]APK-OH) | Active
36 | C[C@H](NC(=O)[C@H](CC(N)=O)NC(=O)[C@H](CCCCN)NC(=O)[C@@H]1C[C@@H](O)CN1C(=O)[C@H](C)NC(=O)[C@@H]1CCCN1)C(=O)N1CCC[C@H]1C(=O)N[C@@H](CCCCN)C(=O)O (H-PA[Hyp]KNAPK-OH) | inactive
37 | C[C@H](NC(=O)[C@H](CCCCN)NC(=O)[C@H](CCCCN)NC(=O)[C@@H]1C[C@@H](O)CN1C(=O)[C@H](C)NC(=O)[C@@H]1CCCN1)C(=O)N1CCC[C@H]1C(=O)N[C@@H](CCCCN)C(=O)O (H-PA[Hyp]KKAPK-OH) | inactive
38 | C[C@H](NC(=O)CNC(=O)[C@H](CCCCN)NC(=O)[C@@H]1C[C@@H](O)CN1C(=O)[C@H](C)NC(=O)[C@@H]1CCCN1)C(=O)N1CCC[C@H]1C(=O)N[C@@H](CCCCN)C(=O)O (H-PA[Hyp]KGAPK-OH) | inactive
39 | C[C@H](NC(=O)[C@H](CS)NC(=O)[C@H](CCCCN)NC(=O)[C@@H]1C[C@@H](O)CN1C(=O)[C@H](C)NC(=O)[C@@H]1CCCN1)C(=O)N1CCC[C@H]1C(=O)N[C@@H](CCCCN)C(=O)O (H-PA[Hyp]KCAPK-OH) | inactive
40 | C[C@H](NC(=O)[C@H](Cc1cnc[nH]1)NC(=O)[C@H](CCCCN)NC(=O)[C@@H]1C[C@@H](O)CN1C(=O)[C@H](C)NC(=O)[C@@H]1CCCN1)C(=O)N1CCC[C@H]1C(=O)N[C@@H](CCCCN)C(=O)O (H-PA[Hyp]KHAPK-OH) | inactive
41 | C[C@H](NC(=O)[C@@H]1CCCN1)C(=O)N1C[C@H](O)C[C@H]1C(=O)N[C@@H](CCCCN)C(=O)N[C@H](C(=O)N[C@@H](C)C(=O)N1CCC[C@H]1C(=O)N[C@@H](CCCCN)C(=O)O)[C@@H](C)O (H-PA[Hyp]KTAPK-OH) | inactive
42 | CC(C)C[C@H](NC(=O)[C@H](CCCCN)NC(=O)[C@@H]1C[C@@H](O)CN1C(=O)[C@H](C)NC(=O)[C@@H]1CCCN1)C(=O)N[C@@H](C)C(=O)N1CCC[C@H]1C(=O)N[C@@H](CCCCN)C(=O)O (H-PA[Hyp]KLAPK-OH) | inactive
43 | CSCC[C@H](NC(=O)[C@H](CCCCN)NC(=O)[C@@H]1C[C@@H](O)CN1C(=O)[C@H](C)NC(=O)[C@@H]1CCCN1)C(=O)N[C@@H](C)C(=O)N1CCC[C@H]1C(=O)N[C@@H](CCCCN)C(=O)O (H-PA[Hyp]KMAPK-OH) | inactive
44 | CC(C)[C@H](NC(=O)[C@H](CCCCN)NC(=O)[C@@H]1C[C@@H](O)CN1C(=O)[C@H](C)NC(=O)[C@@H]1CCCN1)C(=O)N[C@@H](C)C(=O)N1CCC[C@H]1C(=O)N[C@@H](CCCCN)C(=O)O (H-PA[Hyp]KVAPK-OH) | inactive
45 | C[C@H](NC(=O)[C@H](CCC(=O)O)NC(=O)[C@H](CCCCN)NC(=O)[C@@H]1C[C@@H](O)CN1C(=O)[C@H](C)NC(=O)[C@@H]1CCCN1)C(=O)N1CCC[C@H]1C(=O)N[C@@H](CCCCN)C(=O)O (H-PA[Hyp]KEAPK-OH) | inactive
46 | C[C@H](NC(=O)[C@H](CCCNC(=N)N)NC(=O)[C@H](CCCCN)NC(=O)[C@@H]1C[C@@H](O)CN1C(=O)[C@H](C)NC(=O)[C@@H]1CCCN1)C(=O)N1CCC[C@H]1C(=O)N[C@@H](CCCCN)C(=O)O (H-PA[Hyp]KRAPK-OH) | inactive
47 | CC[C@H](C)[C@H](NC(=O)[C@H](CCCCN)NC(=O)[C@@H]1C[C@@H](O)CN1C(=O)[C@H](C)NC(=O)[C@@H]1CCCN1)C(=O)N[C@@H](C)C(=O)N1CCC[C@H]1C(=O)N[C@@H](CCCCN)C(=O)O (H-PA[Hyp]KIAPK-OH) | inactive
48 | C[C@H](NC(=O)[C@H](CC(=O)O)NC(=O)[C@H](CCCCN)NC(=O)[C@@H]1C[C@@H](O)CN1C(=O)[C@H](C)NC(=O)[C@@H]1CCCN1)C(=O)N1CCC[C@H]1C(=O)N[C@@H](CCCCN)C(=O)O (H-PA[Hyp]KDAPK-OH) | inactive
49 | C[C@H](NC(=O)[C@H](Cc1c[nH]c2ccccc12)NC(=O)[C@H](CCCCN)NC(=O)[C@@H]1C[C@@H](O)CN1C(=O)[C@H](C)NC(=O)[C@@H]1CCCN1)C(=O)N1CCC[C@H]1C(=O)N[C@@H](CCCCN)C(=O)O (H-PA[Hyp]KWAPK-OH) | inactive
50 | C[C@H](NC(=O)[C@H](Cc1ccc(O)cc1)NC(=O)[C@H](CCCCN)NC(=O)[C@@H]1C[C@@H](O)CN1C(=O)[C@H](C)NC(=O)[C@@H]1CCCN1)C(=O)N1CCC[C@H]1C(=O)N[C@@H](CCCCN)C(=O)O (H-PA[Hyp]KYAPK-OH) | inactive
